The text below walks through data of the OligoGym collection.

Where “and” joins values, the source holds several entries; their conditions need not be identical. Equal values may be shown once. After the bases stand the sugars from the 5' end (letter, count) and the backbone: PS all phosphorothioate, else s phosphorothioate and o phosphodiester by linkage. Methylation of C is not given here. e = 2'-O-(2-methoxyethyl) (MOE); k = constrained ethyl (cEt); d = 2'-deoxy (DNA)

This data set has as its target IRF4. To be noted: ASO.

Consider GGGAACAGGACCTGGT (sugars k3 d10 k3, PS), for which the target mRNA inhibition (SK-MEL-28, 4 µM) was 55%. Turning to GCTAAACCTGGCACCA (sugars k3 d10 k3, PS), the target mRNA inhibition (MM.1R, 1 µM) was determined as 7%. Turning to “TGTGTATTACTCTTAG (sugars kkdddddddddekeke, PS)”, under “MM.1R, 1 µM”, the target mRNA inhibition was 54% and 66%. With GTCTTTGGGATTCTAT (sugars k3 d10 k3, PS), the target mRNA inhibition (SK-MEL-28, 4 µM) came to 65%. For ACTTAGACATTACTAG (sugars k3 d10 k3, PS), the target mRNA inhibition (SK-MEL-28, 4 µM) is 20%. For ACAAGCAGTGATGTCA (sugars k3 d10 k3, PS), the target mRNA inhibition was -4% (MM.1R, 0.0625 µM); 2% (MM.1R, 0.074 µM); 6% (MM.1R, 0.222 µM); 5% (MM.1R, 0.25 µM); 14% (MM.1R, 0.666 µM); 14% (MM.1R, 1 µM). In addition, the target mRNA inhibition by setting is: (MM.1R, 2 µM) 46%; (MM.1R, 4 µM) 52%; (SK-MEL-28, 4 µM) 73%. Take “TTATGTTAGCCAATTC (sugars kkdddddddddekeke, PS)”: the target mRNA inhibition (MM.1R, 1 µM) was 9% and 8%. Take ACCATATTGGAAACCA (sugars k3 d10 k3, PS): the target mRNA inhibition runs as follows: (MM.1R, 0.0625 µM) -12%; (MM.1R, 0.074 µM) -11%; (MM.1R, 0.222 µM) -18%; (MM.1R, 0.25 µM) -6%; (MM.1R, 0.666 µM) -1%; (MM.1R, 1 µM) 3%. Besides, the target mRNA inhibition was 13% (MM.1R, 2 µM); 34% (MM.1R, 4 µM); 74% (SK-MEL-28, 4 µM). In the case of ACAATAAAATGTCACG (sugars k3 d10 k3, PS), where the note is “SK-MEL-28, 4 µM”, the target mRNA inhibition amounted to 29%. Regarding CTACAAAATGCCTCCA (sugars k3 d10 k3, PS), under “SK-MEL-28, 4 µM”, the target mRNA inhibition came to 42%.

With TTATAACCGGTAGAGT (sugars k3 d10 k3, PS), the target mRNA inhibition (SK-MEL-28, 4 µM) amounted to 38%. Same read-out and setting: the same measure for CAAGACCCCGTATCCC (sugars k3 d10 k3, PS): 44%; for GGAATTTCCATTGGAG (sugars k3 d10 k3, PS): 44%. On the same count and under the same terms, in the case of CCCCAGGGCCCTCGGT (sugars k3 d10 k3, PS) it was 18%; in that of TGAGAGACGAAAACAG (sugars k3 d10 k3, PS), -9%; in that of TAGGATAATATACCCC (sugars k3 d10 k3, PS), 74%. Consider GTAACTTGACTTGAGA (sugars k3 d10 k3, PS), for which the target mRNA inhibition (SK-MEL-28, 4 µM) was determined as 49%.

Take TATGGCTAAACCTGGC (sugars k3 d10 k3, PS): the target mRNA inhibition (SK-MEL-28, 4 µM) is 43%. On to GGCGCGCTCCCTTCCC (sugars k3 d10 k3, PS), for which, for the setting “SK-MEL-28, 4 µM”, the target mRNA inhibition was found to be 10%.

On to ATTTCACTGTAGGATT (sugars k3 d10 k3, PS), for which the target mRNA inhibition (SK-MEL-28, 4 µM) amounted to 38%. For the sequence CATGTAAAGTCTGCTG (sugars k3 d10 k3, PS), the target mRNA inhibition (SK-MEL-28, 4 µM) amounted to 58%. Take GAAAGAGGCACCCTCC (sugars k3 d10 k3, PS): the target mRNA inhibition (SK-MEL-28, 4 µM) was found to be 19%. As for “ACTTTTAGAGAGGAGA (sugars kkdddddddddkekek, PS)”, the target mRNA inhibition (MM.1R, 1 µM) turned out to be 40%. With AGGTTGCCGAGATATA (sugars k3 d10 k3, PS), the target mRNA inhibition (MM.1R, 1 µM) is 54% and 67%.

As to “ACCTCAGTTTGTGAAG (sugars kkddddddddddkeke, PS)”, the target mRNA inhibition (MM.1R, 1 µM) was -12%. For the sequence “AGCTTGATAAAGGCTG (sugars e1 k2 d9 k2 e2, PS)”, the target mRNA inhibition (MM.1R, 1 µM) stood at 1%. Same read-out and setting: in the case of “GCATTTTATCATCCGA (sugars kddddddddddkekek, PS)” it was 21%.

As to “GCAGTGATGTCAGGTT (sugars k3 d9 k3 e1, PS)”, the target mRNA inhibition (MM.1R, 0.074 µM) turned out to be 15%; the target mRNA inhibition (MM.1R, 0.222 µM) is 33%; the target mRNA inhibition (MM.1R, 0.666 µM) was 51%; the target mRNA inhibition (MM.1R, 1 µM) came out at 62%; the target mRNA inhibition (MM.1R, 2 µM) came out at 73%.

Turning to CAATTAGCTCTTCTAT (sugars k3 d10 k3, PS), the target mRNA inhibition (SK-MEL-28, 4 µM) came to 14%. AATCTGGATGAGCTTA (sugars k3 d10 k3, PS): the target mRNA inhibition (MM.1R, 1 µM) was 4%. Take AATTTTCACAGTGATC (sugars k3 d10 k3, PS): under “SK-MEL-28, 4 µM”, the target mRNA inhibition amounted to 34%. On to GAAACAGAGACGCGGT (sugars k3 d10 k3, PS), for which, under “SK-MEL-28, 4 µM”, the target mRNA inhibition came out at 1%. Consider CTGGATATGTGGTGTT (sugars k3 d10 k3, PS), for which the target mRNA inhibition (MM.1R, 1 µM) worked out at 30%.

GATAACGAGGTGCCTT (sugars k3 d10 k3, PS): the target mRNA inhibition (SK-MEL-28, 4 µM) is 18%.
